Literature values as cited in US12447051B2, “Multi-functional analgesic-releasing wound dressing” (University of Utah Research Foundation, priority 2020, dated 2025).

Tests used:
[1] = tested on: Primary human dermal fibroblast cell cultures; settings: bupivacaine concentration of the extracts

For poly(lactide-co-caprolactone) [PLC], the in vivo degradation is given as “greater than 6 months”.
For CCCCN1CCCCC1C(=O)Nc1c(C)cccc1C (centres unmarked) [bupivacaine], the cytotoxic threshold [1] is listed as 0.5 % w/w.
